Structures can show the parent of a compound that is named as a salt.
Columns and labels:
[1] = test system: gastric secretion (free and total hydrochloric acid in the gastric fluid); test: Inhibition of gastric fluid secretion (liberation of acid), pylorus ligature, method of Shay et al.; format: in vivo, male Crl:COBS (WI) BR Albino rats; details: Rat, i.d., 4 hours after pylorus ligature
Procedure: The inhibiting activity on the gastric secretion was tested in male Crl:COBS (WI) BR Albino rats having a weight of 100 to 125 gm, according to the method of Shay et al., Gastroenterology 26, 906 (1954). The rats were fasted for 24 hours and then anesthetized with ether. The […] was opened, and the pylorus was tied up. […] The control animals received the same volume of the vehicle (0.2% methyl cellulose solution). After 4 hours the animals were killed by dislocating the neck vertebra, the stomachs were removed, opened along the great curvature and the gastric fluid collected. The free and total hydrochloric acid in the gastric fluid was measured by titration with N/10 sodium hydroxide solution. The results were determined in percent from the data received from the treated and untreated animals. The ED50 values were calculated by linear regression analysis of the probits according to the method described by D. J. Finney, Probit Analysis, Cambridge University Press, 1971.

stomach ulcers = test: Inhibiting effect on the formation of stomach ulcers (acetyl salicylic acid and close-meshed wire cage), method of P. A. Brown; format: in vivo, female Crl:COBS-CD(SD)Br rats; details: po, 0.5 h; Rat, p.o., acetyl salicylic acid 30 min after compound, then wire cage; read-out: Ulcer Inhibition ED50
Procedure: The inhibiting effect on the formation of stomach ulcers was tested in female Crl:COBS-CD(SD)Br rats having a weight of 130 to 160 gm, according to the method of P. A. Brown, European J. Pharmacol. 51, 275 (1978). The animals were fasted for 24 hours, and the compounds were suspended in a 0.2% methyl cellulose solution and administered to the animals using an esophageal tube. After 30 minutes the animals received acetyl salicylic acid perorally at a dose of 8 mg/kg, and after another 30 minutes the animals were placed at room temperature into a close-meshed wire cage. After one hour the animals were killed by dislocating the neck vertebra, the stomach was removed, opened by cutting along the great curvature, the inner side was outwardly spread out on a test tube, and the presence of stomach ulcers was recorded. The activity of the compounds was determined by counting the numbers of stomachs which were free of ulcers. The ED50 was calculated according to the method described by J. T. Litchfield and F. Wilcoxon, J. Pharmac. Exp. Therap. 96, 99 (1949).

[2] = Mydriasis: effect on the size of the pupil; design: species or system male Crl:COBS-CD(SD)BR rats; details: in vivo, po; Rat, percent of maximum pupil diameter obtained by atropine, 30-120 min
Procedure: The effect on the size of the pupil was tested in male Crl:COBS-CD(SD)BR rats having a body weight of 100 to 130 gm by using a […]-binocular microscope with a graduated lens and a 10-fold magnification. The compounds were suspended in a 0.2% methyl cellulose solution and administered using an esophageal tube; groups of 5 animals were used per dose. The control animals received the same volume (1 ml/100 gm of body weight) of the vehicle. The diameter of the pupil was measured before administering the test compound, and 30, 60, 90 and 120 minutes after the treatment. The activity was expressed in percent with regard to the maximum diameter obtained by means of atropine. The ED50 was determined by linear regression analysis of the probits according to the method described by D. J. Finney (supra).

Acute toxicity = details: in vivo, po; Mouse
Procedure: The acute toxicity was determined in male CrL-COBS-CD-I(ICR) mice of an average body weight of 22 to 24 gm which had been fasted for 24 hours. Different doses of each compound were administered to groups of 5 to 10 animals by means of an esophageal tube, and the LD50 -values were calculated by the method of D. J. Finney (supra).

| Structure (SMILES) | ED50 [1] [mg/kg] | ED50 (stomach ulcers) [mg/kg] | ED50 [2] [mg/kg] | LD50 (Acute toxicity) [mg/kg] |
| --- | --- | --- | --- | --- |
| Cl.O=C1Nc2ccccc2N(C(=O)CCN2CCCC2)c2ccccc21 [A, 5,10-dihydro-5-(3-pyrrolidino-propionyl)-11H-dibenzo[b,e][1,4]diazepin-11-one hydrochloride] | 0.2 | 1.27 | 3.61 | 609 |
| CN1C(=O)c2ccccc2N(C(=O)CCN2CCCC2)c2ccccc21 [B, 5,10-dihydro-10-methyl-5-(3-pyrrolidino-propionyl)-11H-dibenzo[b,e,][1,4]diazepin-11-one hydrochloride] | 0.73 | 2.05 |  | 574 |
| Cl.O=C1Nc2ccccc2N(C(=O)CCN2CCCCC2)c2ccccc21 [C, 5,10-dihydro-5-(3-piperidino-propionyl)-11H-dibenzo[b,e][1,4]diazepin-11-one hydrochloride] | 1.6 | 2.1 | 3.84 | 813 |
| O=C1Nc2ccccc2N(C(=O)CN2CCCC2)c2ccccc21 [D, 5,10-dihydro-5-(pyrrolidino-acetyl)-11H-dibenzo[b,e][1,4]diazepin-11-one] | 8.15 | 10.2 | 9.91 | 860 |
| CN1C(=O)c2ccccc2N(C(=O)CN2CCCC2)c2ccccc21 [E, 5,10-dihydro-10-methyl-5-(pyrrolidino-acetyl)-11H-dibenzo[b,e,][1,4]diazepin-11-one hydrochloride] | 18.1 | 8.4 | 9.84 | 816 |
| O=C1Nc2ccccc2N(C(=O)CN2CCCCC2)c2ccccc21 [F, 5,10-dihydro-5-(piperidino-acetyl)-11H-dibenzo[b,e,][1,4]diazepin-11-one] | 6.17 | 10.4 | 5.82 | 600 |

Source: patent publication US4377576A, “5-(Heterocyclic amino-propionyl)-5,10-dihydro-11H-dibenzo[b,e][1,4]diazepin-11-ones” (Karl Thomae Gesellschaft mit beschrankter Haftung, priority 1980, dated 1983)
